Assay results published in ChEMBL document CHEMBL5154903 (J Med Chem, 2022).
Active and inactive are the calls of the source. The calls are words filed in the database; no cut-off is given here.

Experiments:
[1] = Microsomal stability in rat liver microsomes assessed as half life at 1 uM incubated for 60 mins by HPLC-MS/MS analysis; assay type: ADME, Microsome
[2] = Tmax in overnight fasted Sprague-Dawley rat at 5 mg/kg, iv measured upto 24 hrs; assay type: ADME, organism-based; settings: in vivo
[3] = Cmax in overnight fasted Sprague-Dawley rat at 5 mg/kg, iv measured upto 24 hrs; assay type: ADME, organism-based; design: time < 24 hrs, dose 5 mg/kg, route iv; settings: in vivo
[4] = target: Egl nine homolog 1 (Homo sapiens, UniProt Q9GZT9); experiment: Binding affinity to PHD2 (unknown origin) assessed as change in melting temperature at 10 uM in presence of ZnSO4 by thermal shift assay
[5] = target: T1, hERG (Homo sapiens, UniProt Q12809); experiment: Inhibition of hERG expressed in HEK293 cells at 1 uM by patch-clamp assay relative to control; assay type: toxicity, cell-based; settings: HEK293 cells expressing hERG
[6] = system: HepG2; experiment: Inhibition of lipid metabolism in human HepG2 cells assessed as increase in CPT1 levels at 10 uM incubated for 24 hrs by Western blot analysis; assay type: functional, cell-based
[7] = system: MCF7; experiment: Cytotoxicity against human MCF7 cells assessed as reduction in cell viability at 10 uM incubated for 72 to 96 hrs by Celltiter-Glo assay; assay type: toxicity, cell-based; settings: mcf7, 10 µM, time 72-96 hrs
[8] = system: CWR22R; experiment: Cytotoxicity against human 22Rv1 cells assessed as reduction in cell viability at 10 uM incubated for 72 to 96 hrs by Celltiter-Glo assay; assay type: toxicity, cell-based; settings: time 72-96 hrs
[9] = system: Hepatocyte; experiment: Inhibition of lipid metabolism in mouse primary hepatocytes assessed as reduction in intracellular tryglyceride level at 10 uM incubated for 24 hrs; assay type: functional, cell-based
[10] = Microsomal stability in human liver microsomes assessed as half life at 1 uM incubated for 60 mins by HPLC-MS/MS analysis; assay type: ADME, Microsome
[11] = system: HepG2; experiment: Cytotoxicity against human HepG2 cells assessed as reduction in cell viability at 10 uM incubated for 72 to 96 hrs by Celltiter-Glo assay; assay type: toxicity, cell-based; settings: hepg2, 10 µM, time 72-96 hrs
[12] = Clearance in overnight fasted Sprague-Dawley rat at 5 mg/kg, iv measured upto 24 hrs; assay type: ADME, organism-based; settings: in vivo
[13] = AUC (0 to infinity) in overnight fasted Sprague-Dawley rat at 5 mg/kg, po measured upto 24 hrs; assay type: ADME, organism-based; design: dose 5 mg/kg, time < 24 hrs, route po; settings: in vivo
[14] = Tmax in overnight fasted Sprague-Dawley rat at 5 mg/kg, po measured upto 24 hrs; assay type: ADME, organism-based; settings: in vivo
[15] = target: T1, hERG; experiment: Inhibition of hERG expressed in HEK293 cells at 10 uM by patch-clamp assay relative to control; assay type: toxicity, cell-based; settings: HEK293 cells expressing hERG
[16] = Microsomal stability in rat liver microsomes assessed as intrinsic clearance at 1 uM incubated for 60 mins by HPLC-MS/MS analysis; assay type: ADME, Microsome; settings: read-out: CLH
[17] = system: BXPC-3; experiment: Cytotoxicity against human BXPC-3 cells assessed as reduction in cell viability at 10 uM incubated for 72 to 96 hrs by Celltiter-Glo assay; assay type: toxicity, cell-based; settings: bxpc-3, 10 µM, time 72-96 hrs
[18] = Agonist activity at human TRbeta H435 mutant expressed in Escherichia coli BL21 (DE3) cells by alphascreen assay

T1 sequence (Q12809 whole entry): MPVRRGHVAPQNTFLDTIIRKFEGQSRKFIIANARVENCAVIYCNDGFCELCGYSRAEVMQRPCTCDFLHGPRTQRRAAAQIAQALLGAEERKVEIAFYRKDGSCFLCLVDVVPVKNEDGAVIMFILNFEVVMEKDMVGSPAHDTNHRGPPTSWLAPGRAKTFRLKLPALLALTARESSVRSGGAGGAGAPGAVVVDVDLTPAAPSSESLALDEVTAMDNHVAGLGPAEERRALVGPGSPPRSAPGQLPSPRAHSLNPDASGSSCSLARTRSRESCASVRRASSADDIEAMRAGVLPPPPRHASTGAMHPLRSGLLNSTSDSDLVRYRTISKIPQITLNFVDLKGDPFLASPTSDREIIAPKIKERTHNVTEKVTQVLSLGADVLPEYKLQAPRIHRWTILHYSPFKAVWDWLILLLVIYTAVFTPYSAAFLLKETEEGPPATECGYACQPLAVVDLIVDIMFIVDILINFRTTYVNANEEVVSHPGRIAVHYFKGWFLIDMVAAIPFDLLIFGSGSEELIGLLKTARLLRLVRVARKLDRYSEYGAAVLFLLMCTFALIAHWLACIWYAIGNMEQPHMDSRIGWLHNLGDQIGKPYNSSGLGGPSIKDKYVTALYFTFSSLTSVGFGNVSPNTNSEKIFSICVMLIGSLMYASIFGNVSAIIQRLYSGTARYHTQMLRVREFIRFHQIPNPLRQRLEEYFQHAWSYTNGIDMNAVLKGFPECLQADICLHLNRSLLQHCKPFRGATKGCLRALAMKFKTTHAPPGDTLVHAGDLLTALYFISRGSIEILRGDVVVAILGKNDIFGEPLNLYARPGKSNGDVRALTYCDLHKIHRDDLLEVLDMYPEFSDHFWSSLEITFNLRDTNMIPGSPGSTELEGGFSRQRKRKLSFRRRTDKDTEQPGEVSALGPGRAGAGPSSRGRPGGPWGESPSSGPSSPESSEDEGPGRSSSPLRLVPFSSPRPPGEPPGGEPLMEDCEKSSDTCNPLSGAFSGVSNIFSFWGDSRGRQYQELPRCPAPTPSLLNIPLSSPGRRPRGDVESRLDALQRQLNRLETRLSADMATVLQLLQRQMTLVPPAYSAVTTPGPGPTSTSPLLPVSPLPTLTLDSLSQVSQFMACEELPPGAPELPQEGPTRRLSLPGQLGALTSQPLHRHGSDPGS
Chain of Egl nine homolog 1 (Q9GZT9 2-426 limits assumed): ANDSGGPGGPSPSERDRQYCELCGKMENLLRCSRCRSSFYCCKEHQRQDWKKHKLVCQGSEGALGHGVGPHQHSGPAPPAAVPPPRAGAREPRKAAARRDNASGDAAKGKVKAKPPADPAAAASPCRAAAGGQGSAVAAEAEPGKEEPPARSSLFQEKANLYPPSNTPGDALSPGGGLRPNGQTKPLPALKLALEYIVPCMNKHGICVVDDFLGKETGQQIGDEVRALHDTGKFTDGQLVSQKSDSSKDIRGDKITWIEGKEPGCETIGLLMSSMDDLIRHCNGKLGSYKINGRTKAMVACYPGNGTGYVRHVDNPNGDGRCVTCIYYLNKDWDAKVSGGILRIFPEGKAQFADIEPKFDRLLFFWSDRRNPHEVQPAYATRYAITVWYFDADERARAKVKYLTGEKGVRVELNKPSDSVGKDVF

**Q.** For COc1cc(F)cc(C(=O)c2cc(C)c(Oc3ccc4c(O)c(C(=O)NCC(=O)O)nc(OC)c4c3)c(C)c2)c1, which half-life at 1 µM [1] is on record?
**A.** > 2 h

**Q.** And the Tmax [2]?
**A.** 4.8 min

**Q.** What about the Cmax [3] of the same compound?
**A.** 8450 ng/mL

**Q.** What about the ΔTm [4] of the same compound?
**A.** 1.5 °C

**Q.** And the inhibition at 1 µM [5]?
**A.** 4.19%

**Q.** What about the inhibition [6] of the same compound?
**A.** Active

**Q.** And the Activity [7]?
**A.** Non-Toxic

**Q.** What about the Activity [8] of the same compound?
**A.** Non-Toxic

**Q.** And the inhibition [9]?
**A.** Active

**Q.** What about the half-life at 1 µM [10] of the same compound?
**A.** > 2 h

**Q.** And the Activity [11]?
**A.** Non-Toxic

**Q.** And the clearance [12]?
**A.** 7.83 mL/min/kg

**Q.** And the AUC(0-inf) [13]?
**A.** 6830 ng·h/mL

**Q.** And the Tmax [14]?
**A.** 1.33 h

**Q.** And the inhibition at 10 µM [15]?
**A.** 9.13%

**Q.** What about the CLint scaled at 1 µM [16] of the same compound?
**A.** < 45.5 mL/min/kg

**Q.** What about the Activity [17] of the same compound?
**A.** Non-Toxic

**Q.** And the EC50 [18]?
**A.** 1340 nM
